# Reference: the OligoGym collection
# “And” between values parts separate entries of the source, which are not always exact repeats. Identical values can stand only once. HELM strings list units from the 5' end as sugar, base in round brackets, then linkage (d deoxyribose, r ribose, m 2'-O-methyl, p phosphodiester). Methylation of C is not given here. [moe] = 2'-O-(2-methoxyethyl) (MOE); [cEt] = constrained ethyl (cEt); [sp] = phosphorothioate linkage
# Target: HBV
# Details: ASO, HepG2, 0.07 µM
row,Substance,target mRNA inhibition
1,RNA1{[moe](A)[sp].[moe](T)[sp].d(G)[sp].d(A)[sp].d(G)[sp].d(G)[sp].d(C)[sp].d(A)[sp].d(T)[sp].d(A)[sp].d(G)[sp].[moe](C)[sp].[moe](A)[sp].[moe](G)[sp].[moe](C)[sp].[moe](A)[sp].[moe](G)}$$$$V2.0,64%
2,RNA1{[moe](C)[sp].[cEt](A)[sp].[cEt](C)[sp].d(A)[sp].d(G)[sp].d(C)[sp].d(T)[sp].d(T)[sp].d(G)[sp].d(G)[sp].d(A)[sp].d(G)[sp].d(G)[sp].[cEt](C)[sp].[cEt](T)[sp].[moe](T)}$$$$V2.0,11% and 0%
3,RNA1{[moe](C)[sp].[cEt](A)[sp].[cEt](C)[sp].d(G)[sp].d(A)[sp].d(G)[sp].d(T)[sp].d(C)[sp].d(T)[sp].d(A)[sp].d(G)[sp].d(A)[sp].d(C)[sp].[cEt](T)[sp].[cEt](C)[sp].[moe](T)}$$$$V2.0,44% and 38%
4,RNA1{[moe](C)[sp].[cEt](A)[sp].[cEt](G)[sp].d(C)[sp].d(T)[sp].d(T)[sp].d(G)[sp].d(G)[sp].d(A)[sp].d(G)[sp].d(G)[sp].d(C)[sp].d(T)[sp].[cEt](T)[sp].[cEt](G)[sp].[moe](A)}$$$$V2.0,5% and 12%
5,RNA1{[moe](C)[sp].[cEt](C)[sp].[cEt](A)[sp].d(C)[sp].d(A)[sp].d(T)[sp].d(C)[sp].d(A)[sp].d(T)[sp].d(C)[sp].d(C)[sp].d(A)[sp].d(T)[sp].[cEt](A)[sp].[cEt](T)[sp].[moe](A)}$$$$V2.0,60% and 50%
6,RNA1{[moe](C)[sp].[cEt](C)[sp].[cEt](G)[sp].d(C)[sp].d(A)[sp].d(G)[sp].d(T)[sp].d(A)[sp].d(T)[sp].d(G)[sp].d(G)[sp].d(A)[sp].d(T)[sp].[cEt](C)[sp].[cEt](G)[sp].[moe](G)}$$$$V2.0,63% and 52%
7,RNA1{[moe](C)[sp].[cEt](G)[sp].[cEt](G)[sp].d(G)[sp].d(C)[sp].d(A)[sp].d(A)[sp].d(C)[sp].d(A)[sp].d(T)[sp].d(A)[sp].d(C)[sp].d(C)[sp].[cEt](T)[sp].[cEt](T)[sp].[moe](G)}$$$$V2.0,61% and 63%
8,RNA1{[moe](C)[sp].[cEt](G)[sp].[cEt](T)[sp].d(G)[sp].d(C)[sp].d(A)[sp].d(G)[sp].d(A)[sp].d(G)[sp].d(G)[sp].d(T)[sp].d(G)[sp].d(A)[sp].[cEt](A)[sp].[cEt](G)[sp].[moe](C)}$$$$V2.0,68% and 65%
9,RNA1{[moe](C)[sp].[cEt](G)[sp].d(T)[sp].d(G)[sp].d(C)[sp].d(A)[sp].d(G)[sp].d(A)[sp].d(G)[sp].d(G)[sp].d(T)[sp].d(G)[sp].[cEt](A)[sp].[moe](A)[sp].[cEt](G)[sp].[moe](C)}$$$$V2.0,76% and 79%
10,RNA1{[moe](C)[sp].[cEt](T)[sp].d(G)[sp].d(A)[sp].d(A)[sp].d(C)[sp].d(A)[sp].d(A)[sp].d(A)[sp].d(T)[sp].d(G)[sp].d(G)[sp].[cEt](C)[sp].[moe](A)[sp].[cEt](C)[sp].[moe](T)}$$$$V2.0,58% and 71%
11,RNA1{[moe](C)[sp].[moe](A)[sp].[moe](A)[sp].[moe](T)[sp].[moe](T)[sp].d(T)[sp].d(A)[sp].d(T)[sp].d(G)[sp].d(C)[sp].d(C)[sp].d(T)[sp].d(A)[sp].d(C)[sp].[moe](A)[sp].[moe](G)[sp].[moe](C)}$$$$V2.0,30% and 13%
12,RNA1{[moe](C)[sp].[moe](A)[sp].[moe](C)[sp].d(T)[sp].d(A)[sp].d(G)[sp].d(T)[sp].d(A)[sp].d(A)[sp].d(A)[sp].d(C)[sp].d(T)[sp].[moe](G)[sp].[moe](A)[sp].[moe](G)[sp].[moe](C)[sp].[moe](C)}$$$$V2.0,54% and 37%
13,RNA1{[moe](C)[sp].[moe](A)[sp].[moe](G)[sp].[moe](A)[sp].[moe](G)[sp].d(G)[sp].d(T)[sp].d(G)[sp].d(A)[sp].d(A)[sp].d(G)[sp].d(C)[sp].d(G)[sp].d(A)[sp].[moe](A)[sp].[moe](G)}$$$$V2.0,60% and 57%
